# Results taken from US9205102B2, “Method for treatment of castration-resistant prostate cancer” (The University of British Columbia, priority 2013, dated 2015).
# e = 2'-O-(2-methoxyethyl) (MOE); d = 2'-deoxy (DNA)
# Legend:
# Type in all cases: cell-based
# MR42D = assay: Cell viability in enzalutamide resistant cell line MR42D (FIG. 5A); details: compared to a scrambled control
# Procedure: (§1) FIGS. 5A and B show cell viability in enzalutamide resistant cell lines MR42D and MR42F, respectively.
# (§2) Tests were performed on androgen sensitive cells line (LNCaP), castrate resistant, enzalutamide-sensitive prostate cancer cell lines V16A and V16D, which were derived from LNCaP cells grown in castrated nude, Matsumoto, H.; Yamamoto, Y.; Shiota, M.; et al. Cancer Res. (2013) 73(16): 5206-17 and Kuruma, H; Matsumoto, H.; Shiota, M. et al. Mol Cancer Ther (2013) 12(5): 567-76; and castrate resistant, enzalutamide-resistant prostate cancer cell lines MR42D, MR49C, and MR49F which were derived from LNCaP cells grown in castrated nude mice treated with enzalutamide at 10 mg/kg PO daily. BPH-1 is an immortal, benign prostatic hyperplasia cell line (Hayward S W, Dahiya R, Cunha G R, et al. (1995). In Vitro Cell Dev Biol Anim 31: 14-24).
# [1] = test system: CRPC cell lines exhibiting resistance to enzaluatamide; assay: Killing of enzalutamide-resistant CRPC cell lines (summary statement); details: enzalutamide-resistant CRPC cell lines overexpressing IGFBP-2 or IGFBP-5
# Procedure: In a further aspect of the invention, a method for treatment of prostate cancer is provided in which an agent effective to reduce expression of IGFBP-2 and IGFBP-5 is administered to a patient suffering from prostate cancer, and particularly CRPC, concurrently with the administration of androgen-receptor antagonist treatments. Administration of the antisense concurrently with the androgen-receptor antagonist treatment reduces selective pressure towards resistance within the cancer cell population and therefore can delay onset of androgen-receptor antagonist resistance as well as directly providing a therapeutic benefit by killing resistant cells.
# MR42F = assay: Cell viability in enzalutamide resistant cell line MR42F (FIG. 5B); details: compared to a scrambled control
# Procedure: as §1, §2
# IGFBP-2 = IGFBP-2 level in V16 samples treated with OGX-225; details: V16 samples treated with OGX-225 (10 nM)
# [2] = test system: IGFBP-2 or IGFBP-5 (predominant IGFBP); assay: Reduction of IGFBP-2 or IGFBP-5 in prostate cancer cell lines in vitro (FIG. 2); details: concentrations of 10 nM to 100 nM
substance,measurement,setting,value
"OGX-225: bispecific second generation antisense oligonucleotide to IGFBP-2 and IGFBP-5; 20 base phosphorothioate 5-10-5 MOE gapmer, 5′-CAGCAGCCGCAGCCCGGCTC-3′ (sugars from the 5' end e5 d10 e5, all C 5-methyl, all phosphorothioate, T or U not given here)",cell viability,MR42D,substantially reduce the viability
same,killing of resistant cells,[1],capable of killing these resistant cells
same,cell viability,MR42F,substantially reduce the viability
same,IGFBP-2 level,IGFBP-2,Reduction in the IGFBP-2 level
same,amount of the predominant IGFBP,[2],reduce the amount of the predominant IGFBP in a dose dependent manner
